This is an account of results in US20020183384A1, “Methods of treating nuclear factor-kappa B mediated diseases and disorders” (priority 2001, published 2002).

Where two headings read alike, the source gives them in different places.

In the experiment the test system is NF-κB mediated transcription. As to the kind of experiment: NF-κB driven β-lactamase reporter assay in ECV-304 NF-κB.βlaZ cells (AURORA CCF2 fluorescence). The class given is cell-based, human. The following applies: 10 μM compound, ECV-304 NF-κB.βlaZ cells stimulated with 10 ng/mL TNF-α or 100 pg/mL IL-1β, 6 hours at 37° C., inhibition of maximum blue/green ratio; for inhibition at 10 µM: Homo sapiens, read-out: Percent Inhibition at 10 μM. In outline: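 Blue/green (460/530 nm, excitation 395 nm) CCF2 emission ratio quantified NF-κB-driven β-lactamase expression in the stably transfected endothelial-like ECV-304 clone 1E8.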

`COc1cc(C(C)C)c(OS(=O)(=O)NC(=O)Cc2c(C(C)C)cc(C(C)C)cc2C(C)C)c(C(C)C)c1` [Example 192, [(2,4,6-Triisopropyl-phenyl)-acetyl]-sulfamic acid 2,6-diisopropyl-4-methoxy-phenyl ester]: the inhibition at 10 µM (ECV-304, 6 h) turned out to be 63.9%.

Consider `CC(C)c1cccc(C(C)C)c1OS(=O)(=O)NC(=O)C1CC1c1ccccc1` (stereo not drawn) [Example 144, (2-Phenyl-cyclopropanecarbonyl)-sulfamic acid 2,6-diisopropyl-phenyl ester], for which the inhibition at 10 µM (ECV-304, 6 h) amounted to 16.2%.

On to `CC(C)c1cccc(C(C)C)c1NC(=O)NS(=O)(=O)NC1c2ccccc2-c2ccccc21` [Example 19, N-[2,6-bis(1-methylethyl)phenyl]-N′-[(9H-fluoren-9-ylamino)-sulfonyl]-urea], for which, under “ECV-304, 6 h”, the inhibition at 10 µM worked out at 20.2%.

`CCCCCCOS(=O)(=O)NC(=O)Oc1c(C(C)(C)C)cc(C)cc1C(C)(C)C` [Example 49, Carbamic acid, [(hexyloxy)sulfonyl]-, 2,6-bis(1,1-dimethylethyl)-4-methylphenyl ester]: the inhibition at 10 µM turned out to be 22.9%.

Turning to `CC(C)c1cccc(C(C)C)c1OS(=O)(=O)NC(=O)C(Br)c1ccccc1` (stereo not drawn) [Example 175, (Bromo-phenyl-acetyl)-sulfamic acid 2,6-diisopropyl-phenyl ester], where the note is “ECV-304, 6 h”, the inhibition at 10 µM is less than 10%.

With `CC(C)c1cc(Br)cc(C(C)C)c1OC(=O)NS(=O)(=O)Oc1c(C(C)C)cccc1C(C)C` [Example 113, Carbamic acid, [[2,6-bis(1-methylethyl)phenoxy]sulfonyl]-, 4-bromo-2,6-bis(1-methylethyl)phenyl ester], the inhibition at 10 µM was less than 10%.

In the case of `CCCCCN(CCCCC)S(=O)(=O)NC(=O)Oc1c(C(C)C)cccc1C(C)C` [Example 89, Carbamic acid, [(dipentylamino)sulfonyl]-, 2,6-bis(1-methylethyl)phenyl ester], the inhibition at 10 µM came to 31.9%.

In the case of `Cc1cc(C(C)(C)C)c(OC(=O)NS(=O)(=O)Nc2c(C(C)C)cccc2C(C)C)c(C(C)(C)C)c1` [Example 6, Carbamic acid, [[[2,6-bis(1-methylethyl)phenyl]amino]sulfonyl]-, 2,6-bis(1,1-dimethylethyl)-4-methylphenyl ester], the inhibition at 10 µM came to 64.9%.

With `CCCCCCCCCCCCCCN(C)S(=O)(=O)NC(=O)Nc1c(C(C)C)cccc1C(C)C` [Example 84, Urea, N-[2,6-bis(1-methylethyl)phenyl]-N′-[(methyltetradecylamino)-sulfonyl]-], the inhibition at 10 µM (ECV-304, 6 h) turned out to be 44.8%.

As to `CCCCCN(CCCCC)S(=O)(=O)NC(=O)Nc1c(C(C)C)cccc1C(C)C` [Example 64, Urea, N-[2,6-bis(1-methylethyl)phenyl]-N′-[(dipentylamino)sulfonyl]-], under “ECV-304, 6 h”, the inhibition at 10 µM was found to be 55.4%.

In the case of `CC(C)c1cc(C(C)C)c(CC(=O)NS(=O)(=O)Oc2c(C(C)C)cc(NS(C)(=O)=O)cc2C(C)C)c(C(C)C)c1` [Example 227, [(2,4,6-Triisopropyl-phenyl)-acetyl]-sulfamic acid 2,6-diisopropyl-4-methanesulfonylamino-phenyl ester], the inhibition at 10 µM (ECV-304, 6 h) came to 77.3%.

In the case of `CCCCCCCCN(C)S(=O)(=O)NC(=O)Nc1c(C(C)C)cccc1C(C)C` [Example 45, Urea, N-[2,6-bis(1-methylethyl)phenyl]-N′-[(methyloctylamino)sulfonyl]-], the inhibition at 10 µM (ECV-304, 6 h) amounted to 53.5%.

Regarding `CC(C)c1cccc(C(C)C)c1OS(=O)(=O)NC(=O)Oc1c(F)c(F)c(F)c(F)c1F` [Example 152, Carbamic acid, [[2,6-bis(1-methylethyl)phenoxy]sulfonyl]-, pentafluorophenyl ester], the inhibition at 10 µM is less than 10%.

On to `C/C(=C\c1ccccc1)C(=O)NS(=O)(=O)Oc1c(C(C)C)cccc1C(C)C` [Example 236, ((E)-2-Methyl-3-phenyl-acryloyl)-sulfamic acid 2,6-diisopropyl-phenyl ester], for which the inhibition at 10 µM (ECV-304, 6 h) came to 79.4%.

Consider `CC(C)c1cccc(C(C)C)c1OC(=O)NS(=O)(=O)NC(c1ccccc1)C(C)C` (stereo not drawn) [Example 65, Carbamic acid, [[((1-methylethyl)phenylmethyl)amino]sulfonyl]-, 2,6-bis(1-methylethyl)phenyl ester], for which the inhibition at 10 µM amounted to 16.4%.

Turning to `CCCCCCCCCCCCCCCCC(C)S(=O)(=O)NC(=O)Nc1c(OC)cc(OC)cc1OC` (stereo not drawn) [Example 247, N-[2,4,6-trimethoxyphenyl]-N′-(2-octadecylsulfonyl)urea], the inhibition at 10 µM (ECV-304, 6 h) is 14.8%.

As for `CCCN(CCC)S(=O)(=O)NC(=O)Nc1c(C(C)C)cccc1C(C)C` [Example 77, Urea, N-[2,6-bis(1-methylethyl)phenyl]-N′-[(dipropylamino)sulfonyl]-], for the setting “ECV-304, 6 h”, the inhibition at 10 µM is less than 10%.

With `CC(C)(C)c1cccc(C(C)(C)C)c1OC(=O)NS(=O)(=O)NC(c1ccccc1)c1ccccc1` [Example 2, Carbamic acid, [[(diphenylmethyl)amino]sulfonyl]-, 2,6-bis(1,1-dimethylethyl)phenyl ester], the inhibition at 10 µM worked out at 37.2%.

Turning to `CC(C)c1cccc(C(C)C)c1OC(=O)NS(=O)(=O)N1CCc2ccccc21` [Example 72, Carbamic acid, [(2,3-dihydro-1H-indol-1-yl)sulfonyl]-, 2,6-bis(1-methylethyl)-phenyl ester], the inhibition at 10 µM turned out to be 14.1%.

As for `CC(C)c1cccc(C(C)C)c1NC(=O)NS(=O)(=O)NCC(c1ccccc1)c1ccccc1` [Example 9, Urea, N-[2,6-bis(1-methylethyl)phenyl]-N′-[[(2,2-diphenylethyl)amino]-sulfonyl]-], the inhibition at 10 µM (ECV-304, 6 h) is 33.1%.

Turning to `CC(C)c1cc(C(C)C)c(CC(=O)NS(=O)(=O)Oc2c(C(C)C)cc(SC#N)cc2C(C)C)c(C(C)C)c1` [Example 209, [(2,4,6-Triisopropyl-phenyl)-acetyl]-sulfamic acid 2,6-diisopropyl-4-thiocyanato-phenyl ester], the inhibition at 10 µM (ECV-304, 6 h) amounted to 56.8%.

In the case of `CC(C)c1cc(C(C)C)c(CC(=O)NS(=O)(=O)Oc2c(C(C)C)cc(NC(=O)[C@@H](N)CCCCN)cc2C(C)C)c(C(C)C)c1` [Example 197, [2-(2,4,6-Triisopropyl-phenyl)-acetyl]-sulfamic acid 4-((S)-2,6-diamino-hexanoylamino)-2,6-diisopropyl-phenyl ester; compound with generic inorganic neutral component], the “Percent Inhibition at 10 μM” value is listed as less than 10%.

As for `CCCCCCCCCCOS(=O)(=O)NC(=O)Nc1c(C(C)C)cccc1C(C)C` [Example 90, Sulfamic acid, [[[2,6-bis(1-methylethyl)phenyl]amino]carbonyl]-, decyl ester], the inhibition at 10 µM (ECV-304, 6 h) was 13.6%.

For the compound `CC(C)c1cccc(C(C)C)c1NC(=O)NS(=O)(=O)N(C(C)C)C(C)(C)C` [Example 82, Urea, N-[2,6-bis(1-methylethyl)phenyl]-N′-[[(1,1-dimethylethyl)(1-methylethyl)-amino]sulfonyl]-], the inhibition at 10 µM (ECV-304, 6 h) is less than 10%.

As to `CC(C)c1cc(Cl)cc(C(C)C)c1OC(=O)NS(=O)(=O)Oc1c(C(C)C)cccc1C(C)C` [Example 117, Carbamic acid, [[2,6-bis(1-methylethyl)phenoxy]sulfonyl]-, 4-chloro-2,6-bis(1-methylethyl)phenyl ester], the inhibition at 10 µM is less than 10%.

Regarding `CC(C)c1cc(C(C)(C)C)cc(C(C)C)c1OC(=O)NS(=O)(=O)Oc1c(C(C)C)cccc1C(C)C` [Example 143, Carbamic acid, [[2,6-bis(1-methylethyl)phenoxy]sulfonyl]-, 4-(1,1-dimethylethyl)-2,6-bis(1-methylethyl)phenyl ester], the inhibition at 10 µM worked out at 65.8%.

Turning to `CC(C)c1cccc(C(C)C)c1OS(=O)(=O)NC(=O)Oc1c(F)cccc1F` [Example 153, Carbamic acid, [[2,6-bis(1-methylethyl)phenoxy]sulfonyl]-, 2,6-difluorophenyl ester], the inhibition at 10 µM was less than 10%.

With `CC(C)c1cc(C(C)C)c(NC(=O)NS(=O)(=O)Oc2c(C(C)C)cccc2C(C)C)c(C(C)C)c1` [Example 177, Sulfamic acid, [[[2,4,6-tris(1-methylethyl)phenyl]amino]carbonyl]-, 2,6-bis(1-methylethyl)phenyl ester], the inhibition at 10 µM (ECV-304, 6 h) came out at 63.6%.

In the case of `CC(C)c1cc(C(C)C)c(CC(=O)NS(=O)(=O)Oc2c(C(C)C)cc([N+](=O)[O-])cc2C(C)C)c(C(C)C)c1` [Example 182, [(2,4,6-Triisopropyl-phenyl)-acetyl]-sulfamic acid 2,6-diisopropyl-4-nitro-phenyl ester], the inhibition at 10 µM (ECV-304, 6 h) was found to be 69.8%.

For `CC(C)c1cccc(C(C)C)c1OC(=O)NS(=O)(=O)N(C(C)C)C(C)C` [Example 62, Carbamic acid, [[bis(1-methylethyl)amino]sulfonyl]-, 2,6-bis(1-methylethyl)-phenyl ester], the inhibition at 10 µM is less than 10%.

Consider `CC(C)c1cccc(C(C)C)c1OC(=O)NS(=O)(=O)Nc1nc2ccccc2[nH]1` [Example 16, Carbamic acid, [(1H-benzimdazol-2-ylamino)sulfonyl]-, 2,6-bis(1-methylethyl)-phenyl ester], for which the “Percent Inhibition at 10 μM” value is on record as less than 10%.

Take `CCCCCCCCCCCCCCCCOS(=O)(=O)NC(=O)Oc1c(C(C)C)cccc1C(C)C` [Example 107, Carbamic acid, [(hexadecyloxy)sulfonyl]-, 2,6-bis(1-methylethyl)phenyl ester]: the inhibition at 10 µM was less than 10%.

For `CCCCCCCCCCCCCCCCCCN(C)S(=O)(=O)NC(=O)Nc1c(C(C)C)cccc1C(C)C` [Example 80, Urea, N-[2,6-bis(1-methylethyl)phenyl]-N′-[(methyloctadecylamino)-sulfonyl]-], the inhibition at 10 µM (ECV-304, 6 h) was less than 10%.
